Experimental findings from US12583868B2, “JAK inhibitors and methods for synthesizing and using thereof” (GALDERMA HOLDING SA, priority 2020, dated 2026) are described below.

The structures appear in SMILES notation. Some results are limits rather than exact numbers.

The nature of data set [1]: Protein binding analysis (RED), rat plasma. The format is in vitro ADME, male Wistar Han rat. Conditions: 5 μM. On the procedure:
(§1) The protein binding was assessed in plasma of Human, male balb-c mice, male Wistar Han rat, male Göttingen minipig by rapid equilibrium dialysis (RED) devices. After the plasma and buffer phosphate 50 mM pH7.4 were equilibrated at 37° C., the compound was added to plasma to reach a final concentration of 5 μM. An aliquot of plasma was withdrawn immediately. Equilibration under mild agitation was continued for 4 h. The plasma and buffer were sampled and samples were quenched with 4 volumes of acetonitrile and centrifuged. Supernatant was quantified in HPLC/MS/MS to calculate the recovery and the percentage of compound dissolved in the buffer (unbound) and bound to plasma proteins.

Data set [2] can be described thus: Protein binding analysis (RED), mouse plasma. The format is in vitro ADME, male balb-c mice. Conditions: 5 μM. On the procedure: as §1
Data set [3] addresses T1, JAK3 (Homo sapiens, UniProt P52333).
T1 construct: purchased Life Technologies PV3855
T1 sequence (P52333 1-1124): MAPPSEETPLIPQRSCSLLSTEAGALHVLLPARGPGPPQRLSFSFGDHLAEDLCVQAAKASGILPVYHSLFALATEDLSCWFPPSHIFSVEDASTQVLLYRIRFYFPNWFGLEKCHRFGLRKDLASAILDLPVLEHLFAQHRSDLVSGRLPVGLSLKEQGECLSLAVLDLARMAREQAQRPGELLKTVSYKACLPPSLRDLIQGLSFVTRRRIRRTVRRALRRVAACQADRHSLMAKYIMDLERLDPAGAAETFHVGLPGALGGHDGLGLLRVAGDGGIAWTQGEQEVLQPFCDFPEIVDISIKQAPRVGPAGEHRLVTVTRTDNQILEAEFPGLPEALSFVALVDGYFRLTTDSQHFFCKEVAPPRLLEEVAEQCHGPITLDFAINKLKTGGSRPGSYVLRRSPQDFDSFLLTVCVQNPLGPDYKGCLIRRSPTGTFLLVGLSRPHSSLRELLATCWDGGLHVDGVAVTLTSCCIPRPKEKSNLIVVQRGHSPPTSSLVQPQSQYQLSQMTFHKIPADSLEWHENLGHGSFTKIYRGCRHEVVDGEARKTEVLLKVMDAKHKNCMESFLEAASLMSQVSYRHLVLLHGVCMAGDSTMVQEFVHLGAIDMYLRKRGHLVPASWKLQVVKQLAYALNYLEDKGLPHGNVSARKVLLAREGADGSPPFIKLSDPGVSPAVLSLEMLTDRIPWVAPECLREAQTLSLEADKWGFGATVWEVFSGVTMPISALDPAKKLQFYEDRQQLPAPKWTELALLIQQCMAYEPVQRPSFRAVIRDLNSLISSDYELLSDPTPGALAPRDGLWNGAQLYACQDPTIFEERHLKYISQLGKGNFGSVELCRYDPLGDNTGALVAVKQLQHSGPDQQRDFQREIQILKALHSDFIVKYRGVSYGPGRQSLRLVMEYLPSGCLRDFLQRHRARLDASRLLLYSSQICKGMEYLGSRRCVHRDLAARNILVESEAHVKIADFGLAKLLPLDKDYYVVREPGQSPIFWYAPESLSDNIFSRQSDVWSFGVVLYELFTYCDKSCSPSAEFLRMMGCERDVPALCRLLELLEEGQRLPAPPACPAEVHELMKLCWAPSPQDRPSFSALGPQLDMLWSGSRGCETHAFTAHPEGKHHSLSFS
The data set is described as follows: In vitro enzyme assay (Cisbio kinase assay), JAK3. The format is biochemical. As to conditions: ATP 300 μM; read-out: Enzymatic assay: JAK3.

A short description of data set [4]: Kinetic aq sol. Format: physicochemical.

In the case of `O=S(=O)(N[C@H]1C[C@@H](N2CCOc3cnc4[nH]ccc4c32)C1)C1CN(C2CC2)C1` [Compound E, 1-Cyclopropyl-N-((cis)-3-(2,3-dihydropyrrolo[3′,2′:5,6]pyrido[3,4-b][1,4]oxazin-1(7H)-yl)cyclobutyl)azetidine-3-sulfonamide], the rFU in data set [1] came out at 16%. The mFU in data set [2] came out at 28%. Besides, the IC50 in data set [3] is over 10 µM. Further, the Kinetic aq sol in data set [4] is recorded as 225/ND/TBD microM.
